Results: the NIST ThermoML archive (doi:10.1021/je5010214)

Settings: Liquid, Vibrating tube method

CCCCCCC [heptane]
Settings	mass density [kg/m3]
343.15 K, 47908 kPa	688
343.15 K, 50059 kPa	689.668
343.15 K, 52026 kPa	691.103
343.15 K, 59944 kPa	696.69
343.15 K, 61966 kPa	697.921
343.15 K, 65070 kPa	699.939
343.15 K, 66059 kPa	700.533
343.16 K, 34034 kPa	676.976
343.16 K, 54918 kPa	693.158
343.16 K, 57986 kPa	695.23
348.15 K, 100.3 kPa	636.109
348.15 K, 462.2 kPa	636.505
348.15 K, 859.8 kPa	637.192
348.15 K, 974.2 kPa	637.393
348.15 K, 1974.9 kPa	638.781
348.15 K, 3051.1 kPa	640.295
348.15 K, 5094 kPa	643.002
348.15 K, 10025 kPa	649.256
348.15 K, 14792 kPa	654.622
348.15 K, 20111 kPa	660.386
348.15 K, 22163 kPa	662.539
348.15 K, 28080 kPa	668.108
348.15 K, 30149 kPa	670.002
348.15 K, 32161 kPa	671.799
348.15 K, 32935 kPa	672.452
348.15 K, 33959 kPa	673.504
348.15 K, 35045 kPa	674.428
348.15 K, 37937 kPa	676.834
348.15 K, 40026 kPa	678.502
348.15 K, 45051 kPa	682.511
348.15 K, 47915 kPa	684.825
348.15 K, 49950 kPa	686.336
348.15 K, 52167 kPa	688.088
348.15 K, 55022 kPa	690.168
348.15 K, 57945 kPa	692.261
348.15 K, 62063 kPa	695.106
348.15 K, 64942 kPa	696.91
348.15 K, 66153 kPa	697.788
348.16 K, 291.7 kPa	636.475
348.16 K, 7050.2 kPa	645.632
348.16 K, 9003.2 kPa	648.038
348.16 K, 12187 kPa	651.83
348.16 K, 17899 kPa	658.098
348.16 K, 25100 kPa	665.329
348.16 K, 32942 kPa	672.463
348.16 K, 42066 kPa	680.23
348.16 K, 60030 kPa	693.748
353.15 K, 100.5 kPa	631.649
353.15 K, 336 kPa	631.995
353.15 K, 572.6 kPa	632.233
353.15 K, 926 kPa	632.774
353.15 K, 1016.4 kPa	632.95
353.15 K, 2992.1 kPa	635.919
353.15 K, 4963.9 kPa	638.644
353.15 K, 7000.9 kPa	641.284
353.15 K, 9062.3 kPa	643.911
353.15 K, 10005 kPa	645.176
353.15 K, 12128 kPa	647.788
353.15 K, 14954 kPa	651.028
353.15 K, 17977 kPa	654.406
353.15 K, 19937 kPa	656.492
353.15 K, 21894 kPa	658.507
353.15 K, 24908 kPa	661.562
353.15 K, 27850 kPa	664.482
353.15 K, 29936 kPa	666.345
353.15 K, 31876 kPa	668.022
353.15 K, 32911 kPa	668.934
353.15 K, 32961 kPa	669.075
353.15 K, 34945 kPa	670.985
353.15 K, 37913 kPa	673.509
353.15 K, 40143 kPa	675.336
353.15 K, 42067 kPa	677.003
353.15 K, 45002 kPa	679.292
353.15 K, 48029 kPa	681.775
353.15 K, 50145 kPa	683.478
353.15 K, 52082 kPa	685.052
353.15 K, 55132 kPa	687.213
353.15 K, 57980 kPa	689.013
353.15 K, 60098 kPa	690.731
353.15 K, 65063 kPa	694.154
353.16 K, 2113.4 kPa	634.631
353.16 K, 33964 kPa	670.126
353.16 K, 62042 kPa	692.223
353.16 K, 66024 kPa	694.802
358.15 K, 100.4 kPa	626.935
358.15 K, 264.1 kPa	627.168
358.15 K, 508.4 kPa	627.316
358.15 K, 926.8 kPa	628.098
358.15 K, 1013.9 kPa	628.327
358.15 K, 3021.2 kPa	631.365
358.15 K, 4930 kPa	634.077
358.15 K, 10073 kPa	641.066
358.15 K, 12137 kPa	643.735
358.15 K, 14905 kPa	646.944
358.15 K, 17965 kPa	650.491
358.15 K, 22175 kPa	654.965
358.15 K, 25059 kPa	657.993
358.15 K, 28035 kPa	660.974
358.15 K, 30002 kPa	662.532
358.15 K, 31978 kPa	664.488
358.15 K, 32793 kPa	665.093
358.15 K, 33039 kPa	665.404
358.15 K, 33850 kPa	666.525
358.15 K, 35026 kPa	667.567
358.15 K, 37872 kPa	669.996
358.15 K, 40037 kPa	671.748
358.15 K, 42100 kPa	673.454
358.15 K, 47958 kPa	678.424
358.15 K, 50038 kPa	680.129
358.15 K, 52081 kPa	681.85
358.15 K, 55073 kPa	684.059
358.15 K, 57918 kPa	685.685
358.15 K, 60043 kPa	687.68
358.15 K, 62066 kPa	689.111
358.15 K, 64986 kPa	691.283
358.15 K, 66109 kPa	692.023
358.16 K, 2083.9 kPa	629.903
358.16 K, 6993.5 kPa	637.086
358.16 K, 9030.2 kPa	639.755
358.16 K, 20162 kPa	652.87
358.16 K, 45054 kPa	675.954
363.15 K, 104.1 kPa	622.138
363.15 K, 334 kPa	622.474
363.15 K, 601.7 kPa	622.649
363.15 K, 892.9 kPa	623.267
363.15 K, 1034.7 kPa	623.668
363.15 K, 1986 kPa	625.081
363.15 K, 2940.4 kPa	626.678
363.15 K, 4979.2 kPa	629.757
363.15 K, 9959.5 kPa	636.563
363.15 K, 11971 kPa	639.421
363.15 K, 14936 kPa	642.887
363.15 K, 17973 kPa	646.544
363.15 K, 19940 kPa	648.708
363.15 K, 24872 kPa	654.024
363.15 K, 27993 kPa	657.078
363.15 K, 30062 kPa	659.006
363.15 K, 31961 kPa	660.63
363.15 K, 33033 kPa	661.606
363.15 K, 33053 kPa	661.633
363.15 K, 34000 kPa	663.017
363.15 K, 35028 kPa	664.03
363.15 K, 37919 kPa	666.495
363.15 K, 39916 kPa	668.059
363.15 K, 42016 kPa	669.917
363.15 K, 47947 kPa	675.063
363.15 K, 50050 kPa	676.807
363.15 K, 52023 kPa	678.457
363.15 K, 54940 kPa	680.815
363.15 K, 57916 kPa	682.78
363.15 K, 59980 kPa	684.625
363.15 K, 62043 kPa	686.168
363.15 K, 64924 kPa	688.267
363.15 K, 66088 kPa	689.169
363.16 K, 6920.2 kPa	632.642
363.16 K, 8964.8 kPa	635.395
363.16 K, 21933 kPa	650.806
363.16 K, 44987 kPa	672.551
